According to ChEMBL document CHEMBL1128738, “Sigma ligands with subnanomolar affinity and preference for the sigma 2 binding site. 1. 3-(omega-aminoalkyl)-1H-indoles” (J Med Chem, 1995):

Tests used:
[1] = molecular target: Sigma non-opioid intracellular receptor 1 (Rattus norvegicus, UniProt Q9R0C9); assay: Binding affinity towards sigma receptor binding site 1 using [3H](+)-pentazocine
[2] = molecular target: Sigma non-opioid intracellular receptor 1 (Rattus norvegicus) (UniProt Q9R0C9); assay: Ratio of the binding affinities for sigma-1 and sigma 2 type receptors, ratio of IC50
[3] = molecular target: Sigma 2 receptor; assay: Binding affinity towards sigma receptor binding site 2 using [3H]DTG of whole rat brain homogenates except cerebellum; format: tissue-based
[4] = molecular target: T1, 5-hydroxytryptamine receptor 1A (Rattus norvegicus, UniProt P19327); assay: Binding affinity towards 5-hydroxytryptamine 1A receptor binding site using [3H]8-OH-DPAT.
T1 sequence (P19327 whole entry): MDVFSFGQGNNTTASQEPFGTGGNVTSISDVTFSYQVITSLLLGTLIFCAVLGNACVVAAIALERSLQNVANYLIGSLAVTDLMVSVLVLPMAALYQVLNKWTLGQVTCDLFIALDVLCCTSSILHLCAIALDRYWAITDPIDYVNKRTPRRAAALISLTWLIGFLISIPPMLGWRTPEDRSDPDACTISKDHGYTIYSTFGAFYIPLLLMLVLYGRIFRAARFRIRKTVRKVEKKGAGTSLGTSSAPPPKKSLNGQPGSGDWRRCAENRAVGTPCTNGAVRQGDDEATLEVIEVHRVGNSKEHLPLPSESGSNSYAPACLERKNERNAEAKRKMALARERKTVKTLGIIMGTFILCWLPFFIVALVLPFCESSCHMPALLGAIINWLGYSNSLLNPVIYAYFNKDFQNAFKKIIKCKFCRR

[5] = molecular target: 5-hydroxytryptamine receptor 2A (Rattus norvegicus, UniProt P14842); assay: Binding affinity towards 5-hydroxytryptamine 2A receptor binding site using [3H]ketanserin.
[6] = molecular target: T2, Adrenergic receptor alpha-1 (Rattus norvegicus, UniProt P15823+P23944+P43140); assay: Binding affinity towards Alpha-1 adrenergic receptor binding site using [3H]prazosin.; format: protein assay
T2 sequence (P15823 whole entry): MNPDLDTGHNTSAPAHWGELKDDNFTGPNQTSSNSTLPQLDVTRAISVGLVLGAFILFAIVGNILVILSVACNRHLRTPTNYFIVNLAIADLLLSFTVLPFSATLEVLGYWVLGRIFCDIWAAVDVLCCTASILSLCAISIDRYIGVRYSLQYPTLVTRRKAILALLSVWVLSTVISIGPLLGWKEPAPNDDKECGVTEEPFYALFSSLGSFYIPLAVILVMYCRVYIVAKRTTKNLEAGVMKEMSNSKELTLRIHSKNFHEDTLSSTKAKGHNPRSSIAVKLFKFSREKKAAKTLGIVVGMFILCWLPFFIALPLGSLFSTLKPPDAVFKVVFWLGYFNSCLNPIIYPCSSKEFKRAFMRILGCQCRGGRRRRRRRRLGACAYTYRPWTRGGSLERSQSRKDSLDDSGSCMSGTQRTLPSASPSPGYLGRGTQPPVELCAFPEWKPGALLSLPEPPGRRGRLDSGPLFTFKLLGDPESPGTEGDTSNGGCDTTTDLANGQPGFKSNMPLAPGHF
T2 sequence (P23944 whole entry): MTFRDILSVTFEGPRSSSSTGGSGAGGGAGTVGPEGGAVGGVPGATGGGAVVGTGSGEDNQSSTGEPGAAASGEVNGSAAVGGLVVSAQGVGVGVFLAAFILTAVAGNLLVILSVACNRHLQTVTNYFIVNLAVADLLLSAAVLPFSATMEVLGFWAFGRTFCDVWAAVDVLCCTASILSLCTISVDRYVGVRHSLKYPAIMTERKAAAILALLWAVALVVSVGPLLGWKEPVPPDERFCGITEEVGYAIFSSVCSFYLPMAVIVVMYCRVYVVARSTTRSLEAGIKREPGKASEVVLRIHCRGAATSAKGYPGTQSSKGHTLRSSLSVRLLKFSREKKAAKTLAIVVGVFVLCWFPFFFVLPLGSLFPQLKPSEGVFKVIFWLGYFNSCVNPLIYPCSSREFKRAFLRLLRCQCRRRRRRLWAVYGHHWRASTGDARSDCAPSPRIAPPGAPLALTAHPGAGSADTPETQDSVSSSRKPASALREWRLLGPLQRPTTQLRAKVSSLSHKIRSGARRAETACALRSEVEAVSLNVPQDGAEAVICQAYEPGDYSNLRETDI
T2 sequence (P43140 whole entry): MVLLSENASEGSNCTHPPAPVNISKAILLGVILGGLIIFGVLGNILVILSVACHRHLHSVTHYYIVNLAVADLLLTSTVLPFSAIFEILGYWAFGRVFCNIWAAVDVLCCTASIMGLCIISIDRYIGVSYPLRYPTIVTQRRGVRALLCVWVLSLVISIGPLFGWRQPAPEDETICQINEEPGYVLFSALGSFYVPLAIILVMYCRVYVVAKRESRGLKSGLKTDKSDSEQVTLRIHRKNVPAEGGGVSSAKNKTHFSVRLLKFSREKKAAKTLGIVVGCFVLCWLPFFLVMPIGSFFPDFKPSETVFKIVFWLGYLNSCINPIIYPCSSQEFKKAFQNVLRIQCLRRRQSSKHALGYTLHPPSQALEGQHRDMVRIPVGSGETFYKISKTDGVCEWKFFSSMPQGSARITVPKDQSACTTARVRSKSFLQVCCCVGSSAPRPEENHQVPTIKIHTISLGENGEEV

[7] = molecular target: D(2) dopamine receptor (Rattus norvegicus, UniProt P61169); assay: Binding affinity towards Dopamine receptor D2 binding site using [3H]spiroperidol.
[8] = molecular target: T2, Adrenergic receptor alpha-1; assay: Binding affinity for Alpha-1 adrenergic receptor with [3H]prazosin; format: protein assay

Sequence of Sigma non-opioid intracellular receptor 1 (Rattus norvegicus) (Q9R0C9 whole entry): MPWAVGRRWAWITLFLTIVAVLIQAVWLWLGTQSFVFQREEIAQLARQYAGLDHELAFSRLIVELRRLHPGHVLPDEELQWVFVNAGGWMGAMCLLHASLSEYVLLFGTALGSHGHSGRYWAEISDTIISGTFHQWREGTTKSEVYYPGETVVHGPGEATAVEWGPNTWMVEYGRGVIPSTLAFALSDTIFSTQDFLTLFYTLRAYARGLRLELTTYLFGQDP
Sequence of Sigma non-opioid intracellular receptor 1 (Q9R0C9 whole entry): as above
Sequence of D(2) dopamine receptor (P61169 whole entry): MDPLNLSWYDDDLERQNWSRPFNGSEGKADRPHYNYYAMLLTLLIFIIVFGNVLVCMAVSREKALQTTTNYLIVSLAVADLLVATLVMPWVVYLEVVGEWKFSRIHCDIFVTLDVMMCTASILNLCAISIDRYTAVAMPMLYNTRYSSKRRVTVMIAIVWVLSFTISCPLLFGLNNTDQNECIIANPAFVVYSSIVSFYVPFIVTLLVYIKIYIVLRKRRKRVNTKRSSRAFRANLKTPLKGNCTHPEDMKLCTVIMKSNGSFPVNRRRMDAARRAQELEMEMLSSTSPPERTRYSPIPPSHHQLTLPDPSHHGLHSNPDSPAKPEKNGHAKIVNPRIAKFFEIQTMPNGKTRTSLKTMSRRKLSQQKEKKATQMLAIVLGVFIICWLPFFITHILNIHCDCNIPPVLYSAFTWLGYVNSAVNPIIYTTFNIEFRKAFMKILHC
Sequence of 5-hydroxytryptamine receptor 2A (P14842 whole entry): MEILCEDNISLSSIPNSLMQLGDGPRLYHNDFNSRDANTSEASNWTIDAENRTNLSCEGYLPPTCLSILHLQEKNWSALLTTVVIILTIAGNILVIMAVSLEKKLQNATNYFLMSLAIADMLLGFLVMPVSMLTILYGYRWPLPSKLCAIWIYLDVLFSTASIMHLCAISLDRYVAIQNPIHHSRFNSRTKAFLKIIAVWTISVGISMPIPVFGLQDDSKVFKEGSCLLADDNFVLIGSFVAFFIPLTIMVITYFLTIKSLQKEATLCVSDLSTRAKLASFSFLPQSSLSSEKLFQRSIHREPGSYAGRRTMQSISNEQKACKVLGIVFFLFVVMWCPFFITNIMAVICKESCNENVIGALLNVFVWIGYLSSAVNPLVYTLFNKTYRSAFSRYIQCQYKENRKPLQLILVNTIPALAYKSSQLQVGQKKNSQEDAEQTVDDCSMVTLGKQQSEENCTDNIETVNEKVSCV

Compound: Cc1ccc(S(=O)(=O)n2cc(CCCCN3CCC4(CC3)OCc3ccccc34)c3ccccc32)cc1
- IC50 [1]: 10 nM
- Ratio [2]: 59
- IC50 [3]: 0.17 nM

Compound: c1ccc(C2CCN(CCCCc3c[nH]c4ccccc34)CC2)cc1
- IC50 [4]: 110 nM
- IC50 [5]: 25 nM
- IC50 [6]: 14 nM
- IC50 [7]: 45 nM
- IC50 [1]: 1.5 nM
- IC50 [3]: 0.48 nM

Compound: c1ccc2c(c1)COC21CCN(CCCCc2cn(-c3ccsc3)c3ccccc23)CC1
- IC50 [1]: 7 nM
- Ratio [2]: 28
- IC50 [3]: 0.25 nM

Compound: Fc1ccc(C2CCN(CCCCc3c[nH]c4ccccc34)CC2)cc1
- IC50 [4]: 27 nM
- IC50 [5]: 34 nM
- IC50 [6]: 20 nM
- IC50 [7]: 160 nM
- IC50 [1]: 1.4 nM
- IC50 [3]: 4 nM

Compound: c1ccc(CN2CCC3(CCCc4ccccc43)CC2)cc1
- IC50 [4]: > 100000 nM
- IC50 [5]: 7100 nM
- IC50 [6]: 1000 nM
- IC50 [1]: 0.26 nM
- IC50 [3]: 12 nM

Compound: Fc1ccc(N2CCN(CCCCc3cn(-c4ccc(F)cc4)c4ccccc34)CC2)cc1
- IC50 [4]: > 10000 nM
- IC50 [5]: 250 nM
- IC50 [6]: 420 nM
- IC50 [7]: 3000 nM
- IC50 [1]: 440 nM
- IC50 [3]: 7.5 nM

Compound: CC(=O)n1cc(CCCCN2CCC3(CC2)OCc2ccccc23)c2ccccc21
- IC50 [1]: 5.7 nM
- Ratio [2]: 27
- IC50 [3]: 0.21 nM

Compound: Cn1cc(CCCCN2CCC3(CC2)OCc2ccccc23)c2ccccc21
- IC50 [1]: 2.1 nM
- Ratio [2]: 7
- IC50 [3]: 0.3 nM

Compound: OC(CCCN1CCN(c2ncc(F)cn2)CC1)c1ccc(F)cc1 (stereo not given) [BMY-14802]
- IC50 [5]: 830 nM
- IC50 [6]: 1500 nM
- IC50 [7]: 8400 nM

Compound: Fc1ccc(C2=CCN(CCCCc3c[nH]c4ccccc34)CC2)cc1
- IC50 [4]: 71 nM
- IC50 [5]: 27 nM
- IC50 [6]: 24 nM
- IC50 [7]: 51 nM
- IC50 [1]: 7.5 nM
- IC50 [3]: 2.3 nM

Compound: COc1ccccc1N1CCN(CCCCc2c[nH]c3ccccc23)CC1
- IC50 [5]: 150 nM
- IC50 [6]: 2.7 nM
- IC50 [7]: 15 nM
- IC50 [1]: 14 nM
- IC50 [3]: 21 nM

Compound: c1ccc2c(c1)COC21CCN(CCCCc2cn(-c3ccncc3)c3ccccc23)CC1
- IC50 [1]: 14 nM
- Ratio [2]: 34
- IC50 [3]: 0.41 nM

Compound: Fc1ccc(N2CCN(CCCCc3c[nH]c4ccccc34)CC2)cc1
- IC50 [4]: 37 nM
- IC50 [5]: 14 nM
- IC50 [6]: 12 nM
- IC50 [7]: 180 nM
- IC50 [1]: 5.6 nM
- IC50 [3]: 1.3 nM

Compound: c1csc(-n2cc(CCCCN3CCC4(CC3)OCc3ccccc34)c3ccccc32)c1
- IC50 [1]: 7.7 nM
- Ratio [2]: 32
- IC50 [3]: 0.24 nM

Compound: Fc1ccc(-n2cc(CN3CCC4(CC3)OCc3ccccc34)c3ccccc32)cc1
- IC50 [1]: 3 nM
- Ratio [2]: 0.64
- IC50 [3]: 4.7 nM

Compound: c1ccc2c(c1)COC21CCN(CCCCc2c[nH]c3ccccc23)CC1
- IC50 [4]: 130 nM
- IC50 [5]: 360 nM
- IC50 [6]: 30 nM
- IC50 [7]: 1300 nM
- IC50 [1]: 2.5 nM
- IC50 [3]: 0.41 nM

Compound: Fc1ccc(-n2cc(CCCCN3CCN(c4ccccc4)CC3)c3ccccc32)cc1
- IC50 [1]: 27 nM
- Ratio [2]: 39
- IC50 [3]: 0.69 nM

Compound: O=C(CC1CCN(CC2CC2)CC1)c1ccc(F)cc1
- IC50 [4]: 44000 nM
- IC50 [5]: 66 nM
- IC50 [6]: 21 nM

Compound: Fc1ccc(-n2cc(CCN3CCC4(CC3)OCc3ccccc34)c3ccccc32)cc1
- IC50 [1]: 15 nM
- Ratio [2]: 5
- IC50 [3]: 3 nM

Compound: Fc1ccc(C2CCN(CCCCc3cn(-c4ccc(F)cc4)c4ccccc34)CC2)cc1
- IC50 [4]: 22000 nM
- IC50 [5]: 270 nM
- IC50 [6]: 220 nM
- IC50 [7]: 4200 nM
- IC50 [3]: 0.27 nM

Compound: Fc1ccc(C2=CC3CCC(C2)N3CCCCc2cn(-c3ccc(F)cc3)c3ccccc23)cc1 (stereo not given)
- IC50 [4]: > 10000 nM
- IC50 [5]: 3700 nM
- IC50 [6]: 350 nM
- IC50 [7]: 8000 nM
- IC50 [1]: 1200 nM
- IC50 [3]: 2.5 nM

Compound: Fc1ccc(-n2cc(CCCCN3CCC(c4ccccc4)CC3)c3ccccc32)cc1
- IC50 [1]: 44 nM
- Ratio [2]: 100
- IC50 [3]: 0.44 nM

Compound: CS(=O)(=O)n1cc(CCCCN2CCC3(CC2)OCc2ccccc23)c2ccccc21
- IC50 [1]: 1.3 nM
- Ratio [2]: 26
- IC50 [3]: 0.05 nM

Compound: c1ccc2c(c1)COC21CCN(CCCCc2cn(-c3nccs3)c3ccccc23)CC1
- IC50 [1]: 14 nM
- Ratio [2]: 74
- IC50 [3]: 0.19 nM

Compound: c1ccc(Cn2cc(CCCCN3CCC4(CC3)OCc3ccccc34)c3ccccc32)cc1
- IC50 [1]: 5.2 nM
- Ratio [2]: 11
- IC50 [3]: 0.48 nM

Compound: Fc1ccc(-n2cc(CCCN3CCC4(CC3)OCc3ccccc34)c3ccccc32)cc1
- IC50 [1]: 10 nM
- Ratio [2]: 3.6
- IC50 [3]: 2.8 nM

Compound: Fc1ccc(-n2cc(CCCCN3CCC4(CC3)OCc3ccccc34)c3ccccc32)cc1 [SIRAMESINE]
- IC50 [4]: 21000 nM
- IC50 [5]: 2000 nM
- IC50 [8]: 330 nM
- IC50 [7]: 800 nM

Compound: COc1ccccc1C1CCN(CCCCc2c[nH]c3ccccc23)CC1
- IC50 [4]: 56 nM
- IC50 [5]: 83 nM
- IC50 [6]: 11 nM
- IC50 [7]: 20 nM
- IC50 [1]: 4.5 nM
- IC50 [3]: 3.3 nM
